*1 amine or outer side, *2 acyl side, *3 side chain or, on linkers, in order; H or OH if unused. Where no end group is shown, it is not given here. Suc = O=C(CCC(=O)[*:2])[*:1]
Tested on: Aβ treated non-diabetic and diabetic rats
Test: Morris water maze test for cognitive impairment in Aβ treated rats
Format: in vivo, Sprague-Dawley rats
Description: Amyloid-β (1-40) (Tocris Bioscience, Ellisville, Mo., USA), IRL-1620 [N-Succinyl-[Glu9, Ala11,15] endothelin 1] (American Peptide Co, Inc., Sunnyvale, Calif., USA) and BQ788 (American Peptide Co, Inc., Sunnyvale, Calif., USA) were dissolved in sterile saline and all the solutions were freshly prepared before injections. Ketamine (Butler Animal Health Supply, Dublin, Ohio, USA) was administered at a dose of 100 mg/kg, intraperitoneally (i.p.), and xylazine (Lloyd Laboratories, Shenandoah, Iowa, USA) was administered at a dose of 10 mg/kg, i.p. Rats were anesthetized with ketamine (100 mg/kg) and xylazine (10 mg/kg) and a lateral cerebral ventricle was cannulated by placing the rat in a stereotaxic (David Kopf Instruments, Tujunga, Calif., USA) instrument and fixing the cannula (coordinates: 1.0 mm lateral, 1.5 mm caudal to bregma and 4.0 mm deep from the bone). Cannula (Plastics One, Roanoke, Va., USA) was anchored with dental acrylic to three screws placed in the skull. The animals were allowed to recover from surgery for at least seven days. After 7 days, rats were treated with vehicle, Aβ (1-40), ETB receptor agonist and/or antagonist in the lateral cerebral ventricles using the implanted cannula. Vehicle, Aβ or ETB receptor agonist and antagonist were injected in a volume of 5 μl over a period of 5 minutes. Aβ (1-40) was used because it is highly soluble compared to Aβ (1-42) and induces endothelial dysfunction of both cerebral and systemic blood vessels in addition to memory deficit (Nitta et al., 1994; Niwa et al., 2000; Smith et al., 2004; Weller et al., 1998). Agents were delivered using 10 μl Hamilton syringe and agent treatments were carried out individually using separate 10 μl syringe. IRL-1620 was administered 1 hour after Aβ injection whereas BQ788 was administered 15 minutes prior to IRL-1620 injection. At the end of the experiment, placement of cannula was confirmed by injecting methylene blue dye (5 μl) and observing the site and extent of staining. All experiments were performed on day 15 (Briyal et al., 2011). Water maze testing was performed from day 15 to day 19 after which animals were euthanized. Animals used for oxidative stress measurements were euthanized on day 15 without being subjected to any behavioral testing. Diabetes mellitus type 2 was induced in rats belonging to the diabetic group by administering freshly prepared streptozotocin at the dose of 45 mg/kg, i.p. Streptozotocin was dissolved in 0.01 M sodium citrate buffer of pH 4.3. On day 3, blood glucose was obtained from the rat-tail and tested for hyperglycemia using the SureStep Complete Blood Glucose monitor kit. Rats with blood glucose levels above 11.1 mM were considered diabetic. Diabetic and non-diabetic animals were randomly divided into five groups (6 rats per group) (i) Sham, (ii) Aβ+Vehicle, (iii) Aβ+IRL-1620, (iv) Aβ+BQ788 (v) Aβ+BQ788+IRL-1620. Aβ (1-40) was administered intracerebroventricularly (i.c.v.) (20 μg in 3 equally divided doses i.e. 6.67 μg were injected 3 times for a total of 20 μg dose) on day 1, 7, and 14. Specific ETB receptor agonist, IRL-1620 (3 μg) and specific ETB receptor antagonist, BQ788 (10 μg) were administered i.c.v. daily for 14 days starting from day 1 of Aβ injection. The doses of IRL-1620 and BQ788 were selected on the basis of previous studies conducted in our laboratory (Leonard et al., 2011).
Spatial learning and memory of animals were tested in a MWM (Morris, 1984). […]

## Suc-Asp-Glu-Glu-Ala-Val-Tyr-Phe-Ala-His-Leu-Asp-Ile-Ile-Trp (Suc-DEEAVYFAHLDIIW) [IRL-1620]
Aβ treated rats, day 3 and 4 of training, vs Aβ + vehicle
  Escape latency, water maze acquisition: decreased significantly
Aβ treated rats, vs vehicle group
  Path length, water maze acquisition: shorter path lengths
Aβ treated rats, vs vehicle treated Aβ rats
  Time spent in the target quadrant, probe trial: increased

## CCCC[C@@H](NC(=O)[C@@H](Cc1cn(C(=O)OC)c2ccccc12)NC(=O)[C@H](CC(C)(C)C)NC(=O)N1[C@H](C)CCC[C@@H]1C)C(=O)O [BQ788, reference compound]
Aβ rats, BQ788 given with IRL-1620
  Improvement in escape latency produced by IRL-1620: blocked
Aβ treated rats given BQ788
  Time spent in the target quadrant, probe trial: did not produce any improvement

— patent US10561704B2, “Compositions and methods for treating neuropsychiatric disorders using an endothelin-B receptor agonist” (MIDWESTERN UNIVERSITY, priority 2013, dated 2020)
